Values quoted from earlier work, collected in patent publication US20050084547A1, “Natural product based apoptosis inducers” (PhytoMyco Research Corporation, priority 2003, published 2005).

System: human leukemia HL-60 cells
Conditions: microscopy, flow cytometry, DNA fragmentation assay

CC(=O)OC(C1CO1)C(OC(C)=O)C1CO1 (stereo not shown) [DADAG, diacetyldianhydrogalactitol]
apoptosis induction: induced apoptosis in the HL-60 cells
